# From ChEMBL document CHEMBL1806408, “Design-driven LO: the discovery of new ultra long acting dibasic β2-adrenoceptor agonists” (Bioorg Med Chem Lett, 2011)
# Key:
# [1] = physchem; conditions: octanol/phosphate buffer, pH 7.4
# [2] = in vivo; conditions: rat, plasma, iv
# [3] = tested on: Cavia porcellus; assay: Bronchodilatory activity in intratracheally dosed guinea pig assessed as inhibition of histamine-induced bronchoconstriction; conditions: inhaled or nasal
# [4] = molecular target: D(2) dopamine receptor (Homo sapiens, UniProt P14416)
# [5] = molecular target: T1, Beta-1 adrenergic receptor (Homo sapiens, UniProt P08588)
# [6] = molecular target: T1, Beta-1 adrenergic receptor; remark: listed apart in the source
# [7] = Selectivity ratio of IC50 for dopamine 2 receptor over EC50 for human adrenergic beta2 receptor
# [8] = molecular target: Beta-2 adrenergic receptor (Homo sapiens, UniProt P07550)
# [9] = Selectivity ratio of EC50 for human adrenergic beta2 receptor to EC50 for adrenergic beta1 receptor
# [10] = Selectivity ratio of IC50 for adrenergic beta1 receptor over EC50 for human adrenergic beta2 receptor
# [11] = tested on: Cavia porcellus; assay: Bronchodilatory activity in intratracheally dosed guinea pig assessed as inhibition of histamine-induced bronchoconstriction after 24 hrs; format: functional
# [12] = Oral bioavailability in rat; format: ADME, organism-based; conditions: in vivo
# Sequence of Beta-2 adrenergic receptor (P07550 whole entry): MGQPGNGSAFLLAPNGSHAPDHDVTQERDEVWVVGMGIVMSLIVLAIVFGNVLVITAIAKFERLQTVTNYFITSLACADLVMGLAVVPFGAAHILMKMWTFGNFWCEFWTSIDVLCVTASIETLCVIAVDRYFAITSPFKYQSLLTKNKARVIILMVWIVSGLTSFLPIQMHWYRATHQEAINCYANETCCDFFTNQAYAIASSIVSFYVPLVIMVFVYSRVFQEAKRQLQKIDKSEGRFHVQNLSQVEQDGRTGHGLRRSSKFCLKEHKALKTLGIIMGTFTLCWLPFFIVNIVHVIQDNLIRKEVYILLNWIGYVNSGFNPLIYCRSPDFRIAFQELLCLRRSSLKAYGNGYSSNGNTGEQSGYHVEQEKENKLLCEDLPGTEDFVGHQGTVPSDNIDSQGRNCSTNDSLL
# Sequence of D(2) dopamine receptor (P14416 whole entry): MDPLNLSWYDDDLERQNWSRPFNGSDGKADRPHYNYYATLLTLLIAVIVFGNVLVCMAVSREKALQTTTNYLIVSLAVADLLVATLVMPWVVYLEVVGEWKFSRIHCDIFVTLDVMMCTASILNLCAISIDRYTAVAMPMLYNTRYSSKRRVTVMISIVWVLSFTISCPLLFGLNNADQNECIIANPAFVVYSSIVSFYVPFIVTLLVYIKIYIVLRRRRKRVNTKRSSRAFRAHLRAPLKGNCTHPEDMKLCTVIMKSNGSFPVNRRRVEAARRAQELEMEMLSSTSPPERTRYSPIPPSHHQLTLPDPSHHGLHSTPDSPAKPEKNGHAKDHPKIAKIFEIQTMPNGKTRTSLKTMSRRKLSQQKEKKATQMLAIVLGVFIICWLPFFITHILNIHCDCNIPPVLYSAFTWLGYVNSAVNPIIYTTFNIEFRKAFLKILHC
# T1 sequence (P08588 whole entry): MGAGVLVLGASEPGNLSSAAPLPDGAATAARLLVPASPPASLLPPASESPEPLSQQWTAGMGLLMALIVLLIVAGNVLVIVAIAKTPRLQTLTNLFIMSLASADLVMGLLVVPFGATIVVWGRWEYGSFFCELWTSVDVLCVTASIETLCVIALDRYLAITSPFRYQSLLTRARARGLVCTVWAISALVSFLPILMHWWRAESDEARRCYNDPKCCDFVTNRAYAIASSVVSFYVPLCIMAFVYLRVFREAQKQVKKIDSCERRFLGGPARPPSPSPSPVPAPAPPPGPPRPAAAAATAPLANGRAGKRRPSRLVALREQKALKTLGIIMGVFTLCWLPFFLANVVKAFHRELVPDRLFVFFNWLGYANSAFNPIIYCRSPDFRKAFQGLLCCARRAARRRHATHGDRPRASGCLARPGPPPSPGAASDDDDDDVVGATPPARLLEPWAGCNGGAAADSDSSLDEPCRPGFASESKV
smiles,measurement,setting,value
O=c1[nH]c2c(O)ccc([C@@H](O)CNCCCOCCOCCc3ccccc3)c2s1,logD,[1],1.1
O=c1[nH]c2c(O)ccc([C@@H](O)CNCCSCCCNCCc3cccc(Cl)c3Cl)c2s1,half-life,[2],10.1 h
OCc1cc(C(O)CNCCCCCCOCCCCc2ccccc2)ccc1O (centres undefined) [SALMETEROL],half-life,[2],2.9 h
same,logD,[1],1.9
same,ED80,[3],1 µg/kg
O=c1[nH]c2c(O)ccc([C@@H](O)CNCCOCCCNCCc3cccc(Cl)c3)c2s1,logD,[1],0.8
O=c1[nH]c2c(O)ccc([C@@H](O)CNCCCSCCOCCc3cccc4ccccc34)c2s1,half-life,[2],3.5 h
same,logD,[1],3.1
O=c1[nH]c2c(O)ccc([C@@H](O)CNCCSCCCNCCc3cccc(C(F)(F)F)c3)c2s1,logD,[1],1.2
O=c1[nH]c2c(O)ccc([C@@H](O)CNCCS(=O)(=O)CCCNCCc3cccc(Cl)c3)c2s1,IC50,[4],794 nM
O=c1[nH]c2c(O)ccc([C@@H](O)CNCCCSCCNCCc3ccccc3Cl)c2s1,IC50,[4],1000 nM
same,EC50,[5],39.8 nM
O=c1[nH]c2c(O)ccc([C@@H](O)CNCCSCCCNCCc3ccccc3)c2s1,half-life,[2],10.8 h
same,logD,[1],0.1
CCc1ccc(CCNCCCSCCNC[C@H](O)c2ccc(O)c3[nH]c(=O)sc23)cc1,logD,[1],0.9
O=c1[nH]c2c(O)ccc([C@@H](O)CNCCCSCCNCCc3cccc(Cl)c3Cl)c2s1,IC50,[4],1000 nM
same,IC50,[6],79.4 nM
same,Ratio IC50/EC50,[7],562
same,EC50,[8],1.58 nM
same,logD,[1],1.7
same,Ratio EC50,[9],35
same,EC50,[5],63.1 nM
same,Ratio IC50/EC50,[10],45
O=c1[nH]c2c(O)ccc([C@@H](O)CNCCSCCCNCCc3ccccc3Cl)c2s1,half-life,[2],15.9 h
same,logD,[1],1
same,inhibition (INH),[11],49%
same,ED80,[3],7 µg/kg
same,bioavailability,[12],< 1%
CN(CCOCCCNC[C@H](O)c1ccc(O)c2[nH]c(=O)sc12)CCc1ccccc1,IC50,[4],2510 nM
same,IC50,[6],398 nM
same,Ratio IC50/EC50,[7],794
same,EC50,[8],2.51 nM
same,Ratio EC50,[9],79
same,EC50,[5],200 nM
same,Ratio IC50/EC50,[10],150
CCOc1ccc(CCNCCCSCCNC[C@H](O)c2ccc(O)c3[nH]c(=O)sc23)cc1,logD,[1],0.4
O=c1[nH]c2c(O)ccc([C@@H](O)CNCCSCCCOCCc3ccccc3)c2s1,IC50,[4],> 1000 nM
same,logD,[1],2.5
O=c1[nH]c2c(O)ccc(CCNCCS(=O)(=O)CCCOCCc3ccccc3)c2s1 [SIBENADET],IC50,[4],100 nM
same,IC50,[6],> 10000 nM
same,Ratio IC50/EC50,[7],141
same,EC50,[8],0.631 nM
same,logD,[1],2.6
same,ED80,[3],7 µg/kg
same,Ratio IC50/EC50,[10],> 14000
O=c1[nH]c2c(O)ccc([C@@H](O)CNCCCOCCNCCc3cccc(Cl)c3Cl)c2s1,IC50,[4],2000 nM
same,IC50,[6],50.1 nM
same,Ratio IC50/EC50,[7],2510
same,logD,[1],0.6
same,Ratio EC50,[9],178
same,EC50,[5],158 nM
same,Ratio IC50/EC50,[10],63
O=c1[nH]c2c(O)ccc([C@@H](O)CNCCCSCCNCCc3cccc(Cl)c3)c2s1,IC50,[4],1580 nM
same,logD,[1],1.1
O=c1[nH]c2c(O)ccc([C@@H](O)CNCCCOCCNCCc3cccc(Cl)c3)c2s1,IC50,[4],> 2510 nM
same,IC50,[6],63.1 nM
same,Ratio IC50/EC50,[7],> 14100
same,EC50,[8],0.2 nM
same,logD,[1],0
same,Ratio EC50,[9],100
same,EC50,[5],39.8 nM
same,Ratio IC50/EC50,[10],45
O=c1[nH]c2c(O)ccc([C@@H](O)CNCC[S+]([O-])CCCNCCc3cccc(Cl)c3)c2s1 (some centres undefined),IC50,[4],> 3160 nM
same,IC50,[6],158 nM
same,Ratio IC50/EC50,[7],> 560
same,EC50,[8],5.01 nM
same,logD,[1],0.2
same,Ratio EC50,[9],8
same,EC50,[5],39.8 nM
same,Ratio IC50/EC50,[10],26
NC(=O)C(c1ccccc1)(c1ccccc1)[C@@H]1CCN(CCc2ccc3c(c2)CCO3)C1 [DARIFENACIN],half-life,[2],7.6 h
same,Ratio IC50/EC50,[7],1860
same,Ratio EC50,[9],2
same,ED80,[3],14 µg/kg
same,Ratio IC50/EC50,[10],21
O=c1[nH]c2c(O)ccc([C@@H](O)CNCCCSCCOCCc3ccccc3)c2s1,logD,[1],2.3
O=c1[nH]c2c(O)ccc([C@@H](O)CNCCCSCCCOCCc3ccccc3)c2s1,logD,[1],> 2.5
same,EC50,[5],3.98 nM
O=c1[nH]c2c(O)ccc([C@@H](O)CNCCCOCCOCCc3cccc4ccccc34)c2s1,logD,[1],2.3
